Row | SMILES | melting point [°C]
1 | O=C(O)CCC(=O)c1ccc(N2CCC3(CC2)OCCO3)cc1 | 130 to 131
2 | COc1cc(NS(C)(=O)=O)c(I)cc1N | 110 to 112
3 | CC1(C2Cc3ccccc3O2)CCCCC1 (stereo not drawn) | 60 to 63
4 | CCc1cccc2[nH]c3c(c12)CC(N(C)C)CC3 (stereo not drawn) | 157 to 161
5 | O=C1NC(=O)C2(CC(O)c3ccccc32)N1 (stereo not drawn) | 260 to 263
6 | Cc1cc(N)c(C(=O)Cc2nnnn2C)cc1C | 162 to 165
7 | O=C(O)c1ccsc1C(F)F | 127 to 128
8 | CC(C(=O)O)c1ccc(N)cc1 (stereo not drawn) | 125 to 129
9 | O=C(Nc1nc(-c2ccc([N+](=O)[O-])cc2)cs1)OCC(Cl)(Cl)Cl | 207 to 209
10 | O=[N+]([O-])c1cc(CO)cc([N+](=O)[O-])c1 | 89
11 | COC(=O)/C(=C/c1ccc2[nH]ccc2c1)N=[N+]=[N-] | 130 to 133
12 | O=C(CCCCCOc1ccccc1)c1ccccc1 | 53.5 to 54.5
13 | CCc1ccc2[nH]c(C(=O)O)cc2c1 | 173
14 | O=C(Nc1ccccc1)C1CSc2sccc2C1=O (stereo not drawn) | 155 to 158
15 | COc1cc(I)cc(OC)c1 | 73 to 74
16 | COC(C)(CC(=O)Nc1ccccc1)OC | 80
17 | COCCCN1CC(=O)c2cc(Cl)sc2S1(=O)=O | 48 to 52
18 | Cc1c(N)cc([N+](=O)[O-])c(N)c1C | 159
19 | CCN(CC)S(=O)(=O)c1c(Cl)c(Cl)c(Cl)c2nc(C(F)(F)F)[nH]c12 | 155 to 157
20 | Cc1cc([N+](=O)[O-])ccc1NC(=O)C1=C(O)N(C)S(=O)(=O)c2sccc21 | 189 to 191
21 | COC1(c2csc(Sc3ccc4c(c3)OCC/C4=N\O)c2)CCOCC1 | 137 to 138
22 | CCOc1ccc(N)cc1OC | 54 to 56
23 | CC(=O)N1N=C(c2ccc(N)c(C)c2)c2cc(Cl)ccc2C=C1C | 209 to 211
24 | CN1C(=O)C2C3C=CC(CCC3)C2(c2ccc(Cl)c(Cl)c2)C1=O (stereo not drawn) | 110 to 115

Row | SMILES | melting point [°C]
25 | CCOC1CCC2(CC1)NC(=O)C(c1cc(Br)ccc1C)=C2O (stereo not drawn) | 138
26 | CCOC(=O)c1cn(CCCl)c2nc(N3CCN(C)CC3)ncc2c1=O | 154 to 155
27 | O=C1C2CCC(N2)C(=O)N1Cc1ccccc1 | 72
28 | CCOC(=O)CC[C@H](NC(=O)OCc1ccccc1)C(=O)O | 82 to 84
29 | CC(C)(C)C(=O)Nc1cccc(N)n1 | 140 to 141
30 | O=C(c1c[nH]c2ccc(Br)cc12)[C@H]1CCCN1C(=O)OCc1ccccc1 | 95 to 96
31 | Cc1c(C)c2c(c(C)c1N)CC(C)(CSc1ccncc1)O2 (stereo not drawn) | 96 to 97
32 | Cc1ccc(CN(C(=S)Nc2ccccc2)C2CCCC2)cc1 | 109 to 111
33 | O=C(C=Cc1ccc(O)c(O)c1)OCCc1ccccc1 | 126 to 128
34 | COc1c(Cl)cc2nc3c(=O)[nH][nH]c(=O)c3c(O)c2c1Cl | 210 to 211
35 | COc1ccc(C(=O)CBr)c2c1OCCO2 | 67
36 | C#CCON=C(C(=O)OC)c1nsc(NC(=O)OC(C)(C)C)n1 | 72 to 75
37 | CCC(Cl)Cc1sc(O)nc1C (stereo not drawn) | 84 to 85
38 | CCC(Oc1ccccc1OC)C(=O)OC1CC(O)C=C2C=CC(C)C(CCC3CC(O)CC(=O)O3)C21 (mixture of isomers) | 116 to 117
39 | C[C@](O)(COc1ccc(C#N)cc1)C(=O)Nc1ccc(C#N)c(Cl)c1 | 103 to 105
40 | CCCCCCc1cc(C=O)c(O)cc1O | 108 to 110
41 | Cc1cc(NC(=O)C(C)(O)COc2ccc(OCCBr)cc2)ccc1[N+](=O)[O-] (stereo not drawn) | 135 to 138
42 | N=C(Nc1ccc(CN(Cc2ccccc2)Cc2ccccc2)cc1)c1cccs1 | 127 to 128
43 | CC(C)CNC(=O)[C@H](C)C[C@H](O)[C@H](CC1CCCCC1)NC(=O)[C@H](Cc1cscn1)NC(=O)[C@@H](CC(=O)N(C)Cc1ccccc1)Cc1ccccc1 | 118 to 120
44 | CCC1SC(NC)=NN1C(=O)C(C)(C)C (stereo not drawn) | 78.5 to 80
45 | O=C1c2ccccc2C(Nc2ccccn2)N1CCCN1CC=C(c2ccccc2)CC1 (stereo not drawn) | 153
46 | CC1(C)OC(=O)N=C1c1ccccc1 | 106 to 108
47 | COCCN(CCOC)CCc1ccc(Nc2ncc3c(n2)-c2ccccc2C(c2cccc(Br)c2)C3)cc1 (stereo not drawn) | 58 to 60
48 | CC(=O)CC(=O)c1ccc(C)nc1 | 57 to 58

The remaining lines, values ahead:

Row | melting point [°C] | SMILES
49 | 178 to 181 | CC(CC1=C(c2ccc(O)cc2)CCCNC1=O)N1CCCCC1 (stereo not drawn)
50 | 303 to 305 | O=C1CCC(N2Cc3cc(CNC(=O)c4ccccc4C(F)(F)F)ccc3C2=O)C(=O)N1 (stereo not drawn)
51 | 140 to 145 | CCOC(=O)c1cn(CCc2cccc(C(F)(F)F)c2)c2cc(C3CC3)nn2c1=O
52 | 78 to 80 | O=[N+]([O-])c1ccccc1Oc1cc(Cl)cc(Cl)c1
53 | 150 to 153 | COc1cc2ccc(CO)c(-c3ccnc(Br)c3)c2cc1OC
54 | > 250 | CC(=O)Nc1ccccc1-n1cc2c(c1-c1ccccc1)c(=O)n(C)c(=O)n2C
55 | 285 to 288 | Cc1ccc(-c2ccc3c(c2)C=C(C(=O)Nc2ccc(Cc4ncccc4O)cc2)CCO3)cc1
56 | 199 to 200 | Cc1noc(NS(=O)(=O)c2ncccc2C(=O)Nc2ccccc2)c1C
57 | 130 to 132 | CCCCc1nc2c(N)nc(C)c(C)c2n1CCOc1ccccc1
58 | 151 | CC(C)(C)c1cc2c(c(C(=O)Nc3ccc(S(=O)(=O)C(F)(F)F)cc3Cl)c1O)CCCC2
59 | 212 to 213 | C[C@@H](n1cnc2cc(F)c(F)cc2c1=O)[C@](O)(Cn1cncn1)c1ccc(F)cc1F
60 | 128 to 129 | CCCCNc1cc(-c2c(-c3cccc(C)c3)nc3cccnn23)ccn1
61 | 163 to 164 | CC(Oc1ccc(S(C)(=O)=O)cc1)c1ccnc2ncnn12 (stereo not drawn)
62 | 264 | COc1ccc2nc3cc(OC)c(=O)c(Cl)c-3sc2c1
63 | 226 to 227 | Cc1nc2n(c1C)N=C(c1ccc(N)cc1)c1cc3c(cc1C2)OCO3
64 | 153 to 157 | O=c1cc(-c2ccccc2)oc2c(C=S)cccc12
65 | 196 to 197 | O=c1nc(-c2c(F)cccc2F)oc(=O)n1-c1ccc(Cl)c(Cl)c1
66 | 175 to 177 | CCOC1(C(N)=O)c2ccccc2S(=O)(=O)N1Cc1ccc(Br)cc1F (stereo not drawn)
67 | 231 to 232 | CCOC(=O)c1ncc2[nH]c3ccc(Br)cc3c2c1C
68 | 164 to 165 | COc1cc(Oc2cccc(C)n2)c(C=CC(=O)c2ccc(S(N)(=O)=O)cc2)cc1-c1cccs1
69 | 63 to 64 | CC/C(=C\CCC(O)(CC)CC)c1cc(COc2ccc(CO)c(CO)c2)cs1
70 | 198 to 200 | CCCOC(=O)c1cc(C(=O)Nc2ccccc2O)cc(Br)c1O
71 | 95 to 96 | Cc1nc(NC(=O)c2ccc(F)cc2Cl)sc1C(=O)NCc1ccccc1
72 | 187 to 192 | Cc1ccc2c(c1)C(c1ccncc1)CC2(O)c1ccc(F)cc1 (stereo not drawn)
73 | 124 to 125 | Cc1oc(-c2ccccc2)nc1COc1ccc(Cn2cc(CCC(=O)O)c(-c3ccccc3)c2)cc1
74 | 97 to 98 | Cc1cc2c(c3occ(-c4ccc(C(C)C)cc4)c13)CCCC2
75 | 145 to 146 | COc1nccc(C)c1NC(=O)c1cccnc1Cl
76 | 186 | CC1(C)CCC(C)(C)c2cc(NC(=O)c3ccc(C=O)cc3)ccc21

Row | melting point [°C] | SMILES
77 | 137 | O=C(O)c1ccc(Br)cc1Cc1ccccc1
78 | 253 to 256 | Cc1ccc(S(=O)(=O)n2ccc3c(-c4c(-c5ccc(F)cc5)nc5ccc(N6CCN[C@H](C)C6)nn45)ccnc32)cc1
79 | 141 to 143 | CCN(CC)c1ccc(C2(c3ccc(N(CC)CC)cc3N(CC)CC)OC(=O)c3ccccc32)c(Cl)c1 (stereo not drawn)
80 | 71.8 to 71.9 | CSc1c(F)cc(CC(=O)c2ccccc2)cc1F
81 | 197 to 198 | COc1ccc(-c2cc(C=CC(=O)O)cs2)cc1C(C)(C)C
82 | 132 | COc1ccc(Cl)cc1C(=O)Nc1ccc(C(F)(F)F)cc1
83 | 165 to 167 | CC(C)(C)c1ccc(-c2nc(COc3cccc4cc(NS(=O)(=O)C(F)(F)F)ccc34)co2)cc1
84 | 230 | Cc1cn(C(C)C(=O)c2ccc(Cl)cc2)c(=O)n1-c1ccc(N2CCN(c3ccc(O)cc3)CC2)cc1 (stereo not drawn)
85 | 178 to 180 | CCn1c(C)nc2nc(-c3ccccc3)c(-c3ccccc3)nc21
86 | 128 to 129 | CCCCOCCOc1ccc(-c2cc(/C=C/C(=O)O)c3c(c2)CCCN3C)cc1
87 | 218 to 220 | Cc1ccc(NS(=O)(=O)c2ccc(N3CCNC3=O)cc2)cc1
88 | 78 to 82 | Nc1nc(Cn2c(-c3ccc(Oc4cncnc4)cc3)ccc2-c2ccccc2Cl)ccc1NCCO
89 | 117 to 118 | Cc1noc(C)c1Cn1cc(N2C(=O)CN(CCOc3ccccc3)C2=O)cn1
90 | 177 to 181 | Cn1c2ccccc2c2c3c(c4c5ccccc5n(CCCCN)c4c21)C(=O)NC3=O
91 | 262 to 268 | Cc1ccnc2ccc(Cc3cnc(N)nc3N)cc12
92 | 160 to 161 | CCOC(=O)CCc1sc(N)nc1-c1ccc(Cl)cc1
93 | 109 to 111 | COCOc1cccc(CN(C)c2cnc(-c3ccccc3)c(-c3ccccc3)n2)c1
94 | 131 to 133 | CC(=O)c1ccc(OCc2ccccc2)c2ncccc12
95 | 227 to 229 | CCNC1CCN(c2c(F)cc3c(=O)c(C(=O)O)cn(CC)c3c2F)C1 (stereo not drawn)
96 | 206 to 208 | CCCOc1ccc(F)c2c(=O)c(-c3ccc(OC)cc3)cn(CCN3CCOCC3)c12
97 | 109 to 112 | CC#CC(C)(C)NC(=O)C(CC)Oc1ccc2ncc(Br)cc2c1 (stereo not drawn)
98 | 177 to 179 | COc1c(Br)c(-c2cc(C(C)C)n(C)n2)cc2oc(=O)c(C)c(C)c12
99 | 238 to 241 | NC(=O)Nc1ccc(C2=NNC(=O)Cc3cc4c(cc32)OCO4)cc1
100 | 290 | O=c1[nH]c2c(c3nc(-c4ccccn4)nn13)CN(Cc1ccccc1)CC2
101 | 180 to 182 | Cn1nncc1-c1cc(C=O)c2occc2c1
102 | 98 to 100 | [N-]=[N+]=Nc1ccc(C(=O)NCCCC[C@@H](C(=O)O)n2c3ccccc3c3ccccc32)cc1
103 | 189 to 190 | CO/C(=C\c1ccc(OCCc2nc(-c3ccccc3)oc2C)c2ccsc12)C(=O)O

— a melting point compilation (Tetko et al.; mined from patent text by program, amines drawn as free bases though some values may be those of a salt)
